Experimental data published in patent US20260001914A1, “MACROCYCLIC PEPTIDES TARGETING KRAS” (Merck Sharp & Dohme LLC, priority 2022, published 2026).
*1 amine or outer side, *2 acyl side, *3 side chain or, on linkers, in order; H or OH if unused. Where a SMILES comes first, the peptide text is derived from it. Bridges are numbered along the chain shown (N, C = ends). Where no end group is shown, it is not given here. [ ]: non-standard residue; d: D form. Phe(4-guanidino) = N=C(N)Nc1ccc(C[C@H](N)C(=O)O)cc1; X22 = CNC(=N)N(C)CCC[C@@H](C(=O)[*:2])N(C)[*:1]; Ala(pyrimidin-5-yl) = N[C@@H](Cc1cncnc1)C(=O)O; X6 = O=C([C@H](Cc1cnn(C2COC2)c1)N[*:1])[*:2]; NMe3Pal(5-F) = CN[C@@H](Cc1cncc(F)c1)C(=O)O; NMePhe(3-Me) = CN[C@@H](Cc1cccc(C)c1)C(=O)O; X14 = O=C([C@H](Cc1c(F)cncc1F)N[*:1])[*:2]; X37 = O=C([C@H](Cc1cnc(F)cc1F)N[*:1])[*:2]; X26 = Cn1cc(C[C@H](N[*:1])C(=O)[*:2])cn1; X15 = O=C([C@H](Cc1cnccc1F)N[*:1])[*:2]; Nle(5,5-F2) = CC(F)(F)CC[C@H](N)C(=O)O; X28 = O=C([C@H](Cc1ncccn1)N[*:1])[*:2]; X35 = CN([C@@H](CCCF)C(=O)[*:2])[*:1]; Phe(2-F) = N[C@@H](Cc1ccccc1F)C(=O)O; X31 = O=C([C@H](CCC1CC1)N[*:1])[*:2]; NMe3Pal = CN[C@@H](Cc1cccnc1)C(=O)O; X1 = O=C(C12CC(CN[*:1])(C1)C2)[*:2]; Ala(cPr) = N[C@@H](CC1CC1)C(=O)O; NMeF = CN[C@@H](Cc1ccccc1)C(=O)O; PhLac = O=C(O)[C@@H](O)Cc1ccccc1; 3Pal = N[C@@H](Cc1cccnc1)C(=O)O; Ahp(2) = CCCCC[C@H](N)C(=O)O; Cba = N[C@@H](CC1CCC1)C(=O)O; hLeu = CC(C)CC[C@H](N)C(=O)O; αMeC = C[C@](N)(CS)C(=O)O; NMeA = CN[C@@H](C)C(=O)O; Nle = CCCC[C@H](N)C(=O)O

B1: cyclo(F-R-Y-L-V-Ahp-NMeF-dC-C1Ac) (peptide)
peptide: {CH2CO}-FRYLV[Ahp(2)][NMeF][dC]
modifications: thioether N-8 (inferred); not fully specified (C-terminus); printed as cyclo(F-R-Y-L-V-Ahp-NMeF-dC-C1Ac)

Target: Biotin-labeled KRAS-G12D protein (UniProt P01116-2 1-169, limits assumed, biotin label (site not stated); loaded with BODIPY-GDP)
Assay: cell-based or functional assay
Conditions: not given

Row | Molecule | SOS assay EC50 [µM]
1 | cyclo(F-R-3Pal-Nle-Phe2F-Nle-NMe3Pal-aMeC7-C1Ac) (peptide) | 0.728
2 | cyclo(F-R-3Pal-Nle-TyrOMe-Nle-NMeF-cBuAc) (peptide) | 0.117
3 | cyclo(F-R-3Pal-cBuA-TyrOMe-HagNMeHag-daMeC-C1Ac) (peptide) | 0.239
4 | cyclo(INal-R-K-Nle-Phe3AcOH-Nle-NMeF-Cysteamine-C1Ac) (peptide) | 2.65
5 | cyclo(dF-R-3Pal-Nie-TyrOMe-Nle-NMeF-c3amCblc) (peptide) | 0.223
6 | cyclo(Y-hS-3Pal-cBuA-Phe2F-Nle-NMe3Pal-daMeC1-C1Ac) (peptide) | 6.68
7 | cyclo(F-R-3Pal-cBuA~TyrOMe-Nle-NMeF-spiro54) (peptide) | 0.656
8 | cyclo(Phe4F-R-4Pal-L-TyrOMe-Nva-NMeF-dC6-C1Ac) (peptide) | 0.369
9 | cyclo(F-R-3Pal-cBuA-TyrOMe-AheNMeHag-aMeC-C1Ac) peak 2 (peptide) | 0.65
10 | cyclo(F-R-3Pal-Nle-V-Nle-NMe3Pal-aMeC1-C1Ac) (peptide) | 0.329
11 | cyclo(F-R-3Pal-Nle-TyrOMe-Nle-NMeF-dbhcLeu) (peptide) | 0.949
12 | B1 | 7.14

Target: phosphorylation levels of ERK1/2 in AsPC-1 (homozygous KRAS-G12D) cells (Homo sapiens, UniProt P01116, G12D)
Assay: Cellular phospho-ERK assay in AsPC-1 cells (Alpha Screen), assay medium without fetal bovine serum;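 note: signal taken as phospho-ERK over total ERK per well, both detected in one multiplex bead assay, EC50 from four-parameter logistic fit of dose-response curves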
Assay type: cell-based
Conditions: phospho-ERK AlphaScreen, 18 h

Row | Molecule | EC50 [µM]
13 | Cc1cccc(C[C@H]2C(=O)NCC34CC(C3)(C4)C(=O)O[C@@H](Cc3ccccc3)C(=O)N(C)[C@@H](C)C(=O)N[C@@H](Cc3cncnc3)C(=O)N[C@@H](CC3CC3)C(=O)N[C@@H](Cc3cnccc3F)C(=O)N[C@@H](CCC(C)C)C(=O)N2C)c1 [compound 278, cyclo(FLac-NMeA-PyrimAla-cPrA-3Pal6F-hL-NMePhe3Me-amBCP)] (cyclo([Ala(cPr)][X15][hLeu][NMePhe(3-Me)][X1][PhLac][NMeA][Ala(pyrimidin-5-yl)])) | 4
14 | C[C@H]1C(=O)N[C@@H](Cc2cncnc2)C(=O)N[C@@H](CC2CC2)C(=O)N[C@@H](Cc2ccccc2F)C(=O)N[C@@H](CC2CC2)C(=O)N(C)[C@@H](Cc2ccccc2)C(=O)NCC23CC(C2)(C3)C(=O)O[C@@H](Cc2ccccc2)C(=O)N1C [compound 267, cyclo(FLac-NMeA-PyrimAla-cPrA-Phe2F-cPrA-NMeF-amBCP)] (cyclo([Ala(cPr)][NMeF][X1][PhLac][NMeA][Ala(pyrimidin-5-yl)][Ala(cPr)][Phe(2-F)])) | 9.13
15 | CCCCC[C@@H]1NC(=O)[C@H](Cc2ccc(OC)cc2)NC(=O)[C@H](CC2CCC2)NC(=O)[C@H](Cc2ccc(NC(=N)N)cc2)NC(=O)[C@H](CCCN(C)C(=N)NC)N(C)C(=O)[C@H](Cc2ccccc2)NC(=O)CSC[C@@](C)(C(N)=O)NC(=O)[C@H](Cc2ccccc2)N(C)C1=O [compound 381, cyclo(F-NMeArg1MeMe-Phe4Gn-cBuA-TyrOMe-Ahp-NMeF-aMeCl-ClAc)] ({CH2CO}-F[X22][Phe(4-guanidino)][Cba]Y(Me)[Ahp(2)][NMeF][αMeC]-NH2; thioether N-8) | > 50.8
16 | CCCC[C@@H]1NC(=O)[C@H](Cc2ccccc2F)NC(=O)[C@H](CC2CCC2)NC(=O)[C@H](Cc2cncnc2)NC(=O)[C@H](C)N(C)C(=O)[C@H](Cc2ccccc2)OC(=O)C23CC(CNC(=O)[C@H](Cc4cccnc4)N(C)C1=O)(C2)C3 [compound 125, cyclo(FLac-NMeA-PyrimAla-cBuA-Phe2F-Nle-NMe3Pal-amBCP)] (cyclo([Cba][Phe(2-F)][Nle][NMe3Pal][X1][PhLac][NMeA][Ala(pyrimidin-5-yl)])) | 45
17 | CC(C)CC[C@@H]1NC(=O)[C@H](Cc2cnc(F)cc2F)NC(=O)[C@H](CC2CC2)NC(=O)[C@H](Cc2cncnc2)NC(=O)[C@H](C)N(C)C(=O)[C@H](Cc2ccccc2)OC(=O)C23CC(CNC(=O)[C@H](Cc4ccccc4)N(C)C1=O)(C2)C3 [compound 294, cyclo(FLac-NMeA-PyrimAla-cPrA-3Pal46F2-hL-NMeF-amBCP)] (cyclo([Ala(cPr)][X37][hLeu][NMeF][X1][PhLac][NMeA][Ala(pyrimidin-5-yl)])) | 4.66
18 | C[C@H]1C(=O)N[C@@H](Cc2cccnc2)C(=O)N[C@@H](CC2CCC2)C(=O)N[C@@H](Cc2ccccc2F)C(=O)N[C@@H](CCC(C)(F)F)C(=O)N(C)[C@@H](Cc2cncc(F)c2)C(=O)NCC23CC(C2)(C3)C(=O)O[C@@H](Cc2ccccc2)C(=O)N1C [compound 285, cyclo(FLac-NMeA-3Pal-cBuA-Phe2F-Nle3F2-NMe3Pal5F-amBCP)] (cyclo([3Pal][Cba][Phe(2-F)][Nle(5,5-F2)][NMe3Pal(5-F)][X1][PhLac][NMeA])) | 5.78
19 | CCCC[C@@H]1NC(=O)[C@H](Cc2cnn(C)c2)NC(=O)[C@H](C)N(C)C(=O)[C@H](Cc2ccccc2)OC(=O)C23CC(CNC(=O)[C@H](Cc4cccnc4)N(C)C(=O)[C@H](CCCC)NC(=O)[C@H](Cc4ccccc4F)NC1=O)(C2)C3 [compound 400, cyclo(FLac-NMeA-Ala4PyzlMe-Nle-Phe2F-Nle-NMe3Pal-amBCP)] (cyclo([NMe3Pal][X1][PhLac][NMeA][X26][Nle][Phe(2-F)][Nle])) | 31.4
20 | C[C@H]1C(=O)N[C@@H](Cc2cncnc2)C(=O)N[C@@H](CC2CC2)C(=O)N[C@@H](Cc2ccccc2F)C(=O)N[C@@H](CCC2CC2)C(=O)N(C)[C@@H](Cc2ccccc2)C(=O)NCC23CC(C2)(C3)C(=O)O[C@@H](Cc2ccccc2)C(=O)N1C [compound 114, cyclo(FLac-NMeA-PyrimAla-cPrA-Phe2F-hcPrA-NMeF-amBCP)] (cyclo([Ala(cPr)][Phe(2-F)][X31][NMeF][X1][PhLac][NMeA][Ala(pyrimidin-5-yl)])) | 0.615
21 | CCCCC[C@@H]1NC(=O)[C@H](Cc2ccc(OC)cc2)NC(=O)[C@H](CC2CCC2)NC(=O)[C@H](Cc2ccc(-c3cccnc3N)cc2)NC(=O)[C@H](CCCNC(=N)N)NC(=O)[C@H](Cc2ccccc2)NC(=O)CSC[C@@](C)(C(N)=O)NC(=O)[C@H](Cc2ccccc2)N(C)C1=O [compound 390, cyclo(F-R-Phe43PyNH2-cBuA-TyrOMe-Ahp-NMeF-aMeCl-ClAc)] | > 50.8
22 | CCCC[C@@H]1NC(=O)[C@H](Cc2ccccc2F)NC(=O)C(CC2CC(F)(F)C2)NC(=O)[C@H](Cc2cncnc2)NC(=O)[C@H](C)N(C)C(=O)[C@H](Cc2ccccc2)OC(=O)C23CC(CNC(=O)[C@H](Cc4cccnc4)N(C)C1=O)(C2)C3 (single isomer, unassigned) [compound 123, cyclo(FLac-NMeA-PyrimAla-rF2Cba-Phe2F-Nle-NMe3Pal-amBCP)] | > 50.8
23 | CC(C)CC[C@@H]1NC(=O)[C@H](Cc2c(F)cncc2F)NC(=O)[C@H](CC2CC2)NC(=O)[C@H](Cc2cncnc2)NC(=O)[C@H](C)N(C)C(=O)[C@H](Cc2ccccc2)OC(=O)C23CC(CNC(=O)[C@H](Cc4ccccc4)N(C)C1=O)(C2)C3 [compound 292, cyclo(FLac-NMeA-PyrimAla-cPrA-4Pal26F2-hL-NMeF-amBCP)] (cyclo([Ala(cPr)][X14][hLeu][NMeF][X1][PhLac][NMeA][Ala(pyrimidin-5-yl)])) | 14.5
24 | CC(C)CC[C@@H]1NC(=O)[C@H](Cc2ccccc2F)NC(=O)[C@H](CC2CC2)NC(=O)[C@H](Cc2ncccn2)NC(=O)[C@H](C)N(C)C(=O)[C@H](Cc2ccccc2)OC(=O)C23CC(CNC(=O)[C@H](Cc4ccccc4)N(C)C1=O)(C2)C3 [compound 281, cyclo(FLac-NMeA-2PyrimAla-cPrA-Phe2F-hL-NMeF-amBCP)] (cyclo([Ala(cPr)][Phe(2-F)][hLeu][NMeF][X1][PhLac][NMeA][X28])) | 9.89
25 | CCCC[C@@H]1NC(=O)[C@H](Cc2cccnc2)NC(=O)[C@H](C)N(C)C(=O)[C@H](Cc2cccnc2)NC(=O)C23CC(CNC(=O)[C@H](Cc4cccnc4)N(C)C(=O)[C@H](CCCC)NC(=O)[C@H](Cc4ccccc4F)NC1=O)(C2)C3 [compound 163, cyclo(3Pal-NMeA-3Pal-Nle-Phe2F-Nle-NMe3Pal-amBCP)] (cyclo([3Pal][NMeA][3Pal][Nle][Phe(2-F)][Nle][NMe3Pal][X1])) | > 50.8
26 | CCCC[C@@H]1NC(=O)[C@H](Cc2cccnc2)NC(=O)[C@H](CCCF)N(C)C(=O)[C@H](Cc2ccccc2)OC(=O)C23CC(CNC(=O)[C@H](Cc4cccnc4)N(C)C(=O)[C@H](CCCC)NC(=O)[C@H](Cc4ccccc4F)NC1=O)(C2)C3 [compound 239, cyclo(FLac-NMeNvaF-3Pal-Nle-Phe2F-Nle-NMe3Pal-amBCP)] (cyclo([3Pal][Nle][Phe(2-F)][Nle][NMe3Pal][X1][PhLac][X35])) | 20.7
27 | C[C@H]1C(=O)N[C@@H](Cc2cncnc2)C(=O)N[C@@H](CC2CCC2)C(=O)N[C@@H](Cc2ccccc2F)C(=O)N[C@@H](CCC(C)(F)F)C(=O)N(C)[C@@H](Cc2ccccc2)C(=O)NCC23CC(C2)(C3)C(=O)O[C@@H](Cc2ccccc2)C(=O)N1C [compound 224, cyclo(FLac-NMcA-PyrimAla-cBuA-Phe2F-Nle3F2-NMeF-amBCP)] (cyclo([Cba][Phe(2-F)][Nle(5,5-F2)][NMeF][X1][PhLac][NMeA][Ala(pyrimidin-5-yl)])) | 0.542
28 | CC(C)CC[C@@H]1NC(=O)[C@H](Cc2ccccc2F)NC(=O)[C@H](CC2CC2)NC(=O)[C@H](Cc2cnn(C3COC3)c2)NC(=O)[C@H](C)N(C)C(=O)[C@H](Cc2ccccc2)OC(=O)C23CC(CNC(=O)[C@H](Cc4cccnc4)N(C)C1=O)(C2)C3 [compound 301, cyclo(FLac-NMeA-AlaPyz1Ox-cPrA-Phe2F-hL-NMe3Pal-amBCP)] (cyclo([Ala(cPr)][Phe(2-F)][hLeu][NMe3Pal][X1][PhLac][NMeA][X6])) | 39.5
